# Measured values as given in patent publication US20120077831A1, “METHODS AND ASSAYS FOR THE TREATMENT OF IRRITABLE BOWEL SYNDROME” (priority 2009, published 2012).
# Tests used:
# [1] = test system: patients suffering from IBS-D or IBS-A; test: phase 2a clinical trial in IBS patients: weekly global assessment and Bristol Stool Scale; format: in vivo, human
# Description: (§1) A randomized, double-blind, placebo-controlled phase 2a clinical trial was conducted to assess the safety and efficacy of a TPH inhibitor, (S)-2-amino-3-(4-(2-amino-6-((R)-2,2,2-trifluoro-1-(3′-methoxybiphenyl-4-yl)ethoxy)pyrimidin-4-yl)phenyl)propanoic acid, in 155 patients suffering from IBS-D or IBS-A, based on Rome III criteria. Capsules containing the compound or placebo were orally administered. Two dose levels were tested: 250 mg QID and 1000 mg QID. A two-week run-in period was used to establish baseline symptoms, followed by a 28 day randomized, double-blind treatment period. There was then a two-week follow-up period.
# (§2) During the study, patients' urine and blood were obtained to assess 5-HIAA and 5-HT levels. Methods used to assess clinical endpoints were: 1) global assessment by weekly questioning regarding adequate relief of IBS pain and discomfort; and 2) Bristol Stool Scale was used to assess stool consistency by daily automated telephonic IVRS contact.
# 5-HIAA and 5-HT levels = test: phase 2a clinical trial in IBS patients: blood 5-HT and 24 hour urinary 5-HIAA levels; format: in vivo, human; conditions: oral dosing
# Description: as §1, §2
compound,measurement,setting,value
"COc1cccc(-c2ccc([C@@H](Oc3cc(-c4ccc(C[C@H](N)C(=O)O)cc4)nc(N)n3)C(F)(F)F)cc2)c1 [(S)-2-amino-3-(4-(2-amino-6-((R)-2,2,2-trifluoro-1-(3′-methoxybiphenyl-4-yl)ethoxy)pyrimidin-4-yl)phenyl)propanoic acid]",improvement in global response in relation to baseline serotonin levels (5-HIAA in 24 hour urine prior to dosing),[1]; IBS patients with comparatively high baseline levels versus those without,greater beneficial effect in IBS patients who had comparatively high baseline levels
same,weekly global assessment (adequate relief of IBS pain and discomfort),"[1]; high dose arm (1000 mg QID, oral capsules) versus placebo, 28 day treatment period",statistically significant improvement versus placebo
same,stool consistency (Bristol Stool Scale),"[1]; high dose arm (1000 mg QID, oral capsules), 28 day treatment period",significant improvement
same,24 hour urinary 5-HIAA levels,5-HIAA and 5-HT levels,significant reduction
same,blood 5-HT levels,5-HIAA and 5-HT levels,reduction
